Assay results as given in patent US20250144099A1, “INK4 TUMOR SUPPRESSOR PROTEINS MEDIATE RESISTANCE TO CDK4/6 KINASE INHIBITORS” (MEMORIAL SLOAN-KETTERING CANCER CENTER, priority 2021, published 2025).
“Also recorded” adds a separate entry of the source.

What was measured:
[1] = tested on: MCF-7 CDK6-high cells (FAT1 loss); experiment: Cell viability assay (Resazurin); assay type: cell-based, human; details: day 7
Method: (§1) Cell viability was measured by Resazurin (R&D Systems, Minneapolis, MN, USA) as described previously (51). Briefly, 1,500 cells were seeded in a 96-well plate and allowed to recover overnight. Cells were treated with drugs at day 0. Resazurin was added to the cells 4 hours prior to the measurements on day 3, day 5 and day 7. Fluorescent intensity was measured using a microplate reader (SpectraMax M5, Molecular Devices, Sunnyvale, CA, USA). IC50 was calculated by GraphPad Prism 7.0 using a sigmoidal regression model.

MCF-7 parental cells [2] = experiment: Cell viability assay (Resazurin); assay type: cell-based, human; details: day 7
Method: as §1

Pharmacokinetic study = assay type: in vivo, C57BL/6 male mice
Method: Pharmacokinetic study. C57BL/6 male mice were dosed with BSJ-05-017 solution formulation (i.p., 5/95 DMSO/10% captisol, dose 25 mg/kg) and BSJ-03-096 solution formulation (p.o., 5/95 DMSO/10%, dose 10 mg/kg). Blood samples were collected at 0.08, 0.25, 0.5, 1, 2, 4, 6, 8 and 24 hr. The blood samples were collected from sets of three mice at each time point in microcentrifuge tubes containing K2EDTA as an anticoagulant. Plasma samples were separated by centrifugation and stored below −70° C. until bioanalysis. All samples were processed for analysis by precipitation using acetonitrile and analyzed with a partially validated LC/MS/MS method (LLOQ −1.22 ng/mL for IV and PO, LLOQ −5.02 ng/mL for IP). Pharmacokinetic parameters were calculated using the noncompartmental analysis tool of WinNonlin Enterprise software (Version 6.3).

~900 cell lines = experiment: PRISM cell line screening; assay type: cell-based; details: 8 pt. dose, 5 days
Method: Cell Lines. The current PRISM cell set consists of 931 cell lines representing more than 45 lineages including both adherent and suspension/hematopoietic cell lines. These cell lines largely overlap with and reflect the diversity of the Cancer Cell Line Encyclopedia (CCLE) cell lines (see https://portals.broadinstitute.org/ccle). Cell lines were grown in RPMI 10% FBS without phenol red for adherent lines and RPMI 20% FBS without phenol red for suspension lines. Parental cell lines were stably infected with a unique 24-nucleotide DNA barcode via lentiviral transduction and blasticidin selection. After selection, barcoded cell lines were expanded and QCed (mycoplasma contamination test, a SNP test for confirming cell line identity, and barcode ID confirmation). Passing barcoded lines were then pooled (20-25 cell lines per pool) based on doubling time and frozen in assay-ready vials.
PRISM Screening. […] These assay ready plates were then seeded with the thawed cell line pools. […]
Barcode Amplification and Detection. Each cell line's unique barcode is located at the end of the blasticidin resistance gene and gets expressed as mRNA. […] Finally, Luminex beads that recognize the specific barcode sequences in the cell set were hybridized to the PCR products and then detected using a Luminex scanner which reports signal as a median fluorescent intensity (MFI).

MCF-7 parental cells [3] = experiment: Senescence Green staining and cell cycle analysis; assay type: cell-based, human; details: 500 nM; senescence 8 days, cell cycle 24 h
Method: Senescence analysis. […] Cells were harvested using trypsin/EDTA, then stained with the CellEvent Senescence Green Flow Cytometry Assay Kit (Invitrogen) according to the manufacturer's instructions. Briefly, cells were fixed with 2% paraformaldehyde for 15 min at room temperature and stained with the CellEvent Senescence Green Probe for 2 hours at 37° C. without CO2. After incubation, cells were washed with PBS 3 times and resuspended in FACS buffer (PBS with 2% FBS) for analysis on BD Biosciences LSR Fortessa using a 488 nm laser and 530 nm/30 filter (BD Biosciences). Data analysis was performed with FCS Express 7 (De Novo Software).
Cell cycle analysis. […] Cells were detached from the cell culture dish with trypsin/EDTA, then washed with PBS and fixed in 70% ice-cold EtOH overnight. Prior to staining, EtOH was removed, and cells were washed twice with FACS buffer. Cells were then resuspended in staining buffer containing 1000 μl FACS buffer with 2 μg/ml propidium iodide (Invitrogen) and 100 μg/ml RNase A (Invitrogen). Cell cycle profiles were measured with BD Biosciences LSR Fortessa and analyzed with FCS Express 7.

CC(=O)c1c(C)c2cnc(Nc3ccc(N4CCN(CCCCC(=O)N[C@H](C(=O)N5C[C@H](O)C[C@H]5C(=O)N[C@@H](C)c5ccc(-c6scnc6C)cc5)C(C)(C)C)CC4)cn3)nc2n(C2CCCC2)c1=O [BSJ-05-017, (2S,4R)-1-((S)-2-(5-(4-(6-((6-acetyl-8-cyclopentyl-5-methyl-7-oxo-7,8-dihydropyrido[2,3-d]pyrimidin-2-yl)amino)pyridin-3-yl)piperazin-1-yl)pentanamido)-3,3-dimethylbutanoyl)-4-hydroxy-N—((S)-1-(4-(4-methylthiazol-5-yl)phenyl)ethyl)pyrrolidine-2-carboxamide]
inhibition of cell growth [1]: equal potency; also recorded: equipotent in suppressing proliferation | inhibition of cell growth (MCF-7 parental cells [2]): equal potency; also recorded: equipotent in suppressing proliferation | Cmax (Pharmacokinetic study; male, C57BL/6, mouse, plasma, ip, single dose 25 mg/kg i.p.): 2600 nM | concentration at 24 h (Pharmacokinetic study; male, C57BL/6, mouse, plasma, ip, single dose 25 mg/kg i.p., read-out: plasma concentration at 24h post dosing): ~100 nM | metabolic stability (Pharmacokinetic study; single dose in mice, i.p. or p.o.): good metabolic stability | inhibition of cell growth across cell lines (AUC of cell viability) (~900 cell lines): cells of other cancer types are also sensitive | senescence and cell cycle arrest (MCF-7 parental cells [3]): induces senescence and cell cycle arrest to a same extent as abemaciclib and palbociclib
